{"source": "patent US20110105509A1", "about": "(Wyeth, LLC, priority 2009, published 2011)"}
{"biological_target": "T1, CRTH2 (Homo sapiens, UniProt Q9Y5Y4)", "T1 construct": "expressed in transfected cells; host or cells: CHO cells", "T1 sequence (Q9Y5Y4 1-395)": "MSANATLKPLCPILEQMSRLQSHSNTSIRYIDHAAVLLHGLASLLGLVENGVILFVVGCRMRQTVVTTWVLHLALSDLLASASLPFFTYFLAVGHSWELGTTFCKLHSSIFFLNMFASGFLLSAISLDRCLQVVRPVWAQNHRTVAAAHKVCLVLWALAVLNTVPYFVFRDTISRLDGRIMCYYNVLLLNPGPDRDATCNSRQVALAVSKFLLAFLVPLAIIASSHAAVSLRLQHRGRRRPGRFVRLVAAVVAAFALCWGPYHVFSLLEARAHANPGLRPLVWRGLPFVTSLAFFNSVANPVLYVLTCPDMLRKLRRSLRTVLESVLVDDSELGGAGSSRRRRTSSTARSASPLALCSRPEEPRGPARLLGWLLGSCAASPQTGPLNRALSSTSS", "test": "FRET based competitive immunoassay (cAMP) in CRTH2 expressing CHO cells", "assay_type": "cell-based", "conditions": "CRTH2 expressing CHO cells incubated with forskolin and PGD2; Eu3+ cryptate-labeled anti-cAMP and d2-labeled cAMP", "procedure": "FRET Assay: To evaluate potency compounds were tested in a FRET based competitive immunoassay in which CRTH2 expressing CHO cells were incubated in the presence of forskolin and PGD2 along with Eu3+ cryptate-labeled anti-cAMP and d2-labeled cAMP.", "units": {"IC50": "nM"}}
{"smiles": "Cc1c(-c2ccc(=O)n(Cc3cccc(F)c3F)c2)c2cc(Cl)ccc2n1CC(=O)O", "note": "[Example 292, 2-(5-Chloro-3-(1-(2,3-difluorobenzyl)-6-oxo-1,6-dihydropyridin-3-yl)-2-methyl-1H-indol-1-yl)acetic acid]", "IC50": 11}
{"smiles": "Cc1c(Cc2ccc(=O)n(Cc3c(F)cccc3F)n2)c2cc(F)ccc2n1CC(=O)O", "note": "[Example 338, (3-{[1-(2,6-difluorobenzyl)-6-oxo-1,6-dihydropyridazin-3-yl]methyl}-5-fluoro-2-methyl-1H-indol-1-yl)acetic acid]", "IC50": 5}
{"smiles": "Cc1c(-c2cn(CCC(C)(C)O)c(=O)c3ccccc23)c2cc(F)ccc2n1CC(=O)O", "note": "[Example 272, 2-(5-fluoro-3-(2-(3-hydroxy-3-methylbutyl)-1-oxo-1,2-dihydroisoquinolin-4-yl)-2-methyl-1H-indol-1-yl)acetic acid]", "IC50": 23}
{"smiles": "Cc1c(-c2nn(Cc3nc4ccccc4s3)c(=O)c3ccccc23)c2ccccc2n1CC(=O)O", "note": "[Example 167, 2-(3-(3-(benzo[d]thiazol-2-ylmethyl)-4-oxo-3,4-dihydrophthalazin-1-yl)-2-methyl-1H-indol-1-yl)acetic acid]", "IC50": 14}
{"smiles": "Cc1c(-c2nn(Cc3ccc(C(F)(F)F)c(F)c3)c(=O)c3ccccc23)c2cc(F)ccc2n1CC(=O)O", "note": "[Example 6, 2-(5-Fluoro-3-(3-(3-fluoro-4-(trifluoromethyl)benzyl)-4-oxo-3,4-dihydrophthalazin-1-yl)-2-methyl-1H-indol-1-yl)acetic acid]", "IC50": 23}
{"smiles": "Cc1c(-c2cn(Cc3ccccn3)c(=O)c3ccccc23)c2cc(F)ccc2n1CC(=O)O", "note": "[Example 95, 2-(5-fluoro-2-methyl-3-(1-oxo-2-(pyridin-2-ylmethyl)-1,2-dihydro-isoquinolin-4-yl)-1H-indol-1-yl)acetic acid]", "IC50": 9}
{"smiles": "Cc1c(-c2nn(Cc3ccccc3)c(=O)c3ccccc23)c2cc(S(C)(=O)=O)cc(Cl)c2n1CC(=O)O", "note": "[Example 14, 2-(3-(3-Benzyl-4-oxo-3,4-dihydrophthalazin-1-yl)-7-chloro-2-methyl-5-(methylsulfonyl)-1H-indol-1-yl)acetic acid]", "IC50": 169}
{"smiles": "Cc1c(Cc2ccc(=O)n(Cc3ccccc3)c2)c2cc(Cl)ccc2n1CC(=O)O", "note": "[Example 347, {3-[(1-benzyl-6-oxo-1,6-dihydropyridin-3-yl)methyl]-5-chloro-2-methyl-1H-indol-1-yl}acetic acid]", "IC50": 11}
{"smiles": "Cc1c(-c2ccc(=O)n(Cc3ccc(F)cc3)c2)c2ccccc2n1CC(=O)O", "note": "[Example 283, 2-(3-(1-(4-fluorobenzyl)-6-oxo-1,6-dihydropyridin-3-yl)-2-methyl-1H-indol-1-yl)acetic acid]", "IC50": 16}
{"smiles": "Cc1c(-c2nn(Cc3ccc(OC(F)(F)F)cc3)c(=O)c3ccccc23)c2ccccc2n1CC(=O)O", "note": "[Example 170, 2-(2-methyl-3-(4-oxo-3-(4-(trifluoromethoxy)benzyl)-3,4-dihydrophthalazin-1-yl)-1H-indol-1-yl)acetic acid]", "IC50": 25}
{"smiles": "Cc1c(-c2ccc(=O)n(Cc3cccc(F)c3F)c2)c2cc(F)ccc2n1CC(=O)NS(C)(=O)=O", "note": "[Example 302, 2-(3-(1-(2,3-Difluorobenzyl)-6-oxo-1,6-dihydropyridin-3-yl)-5-fluoro-2-methyl-1H-indol-1-yl)-N-(methylsulfonyl)acetamide]", "IC50": 159}
{"smiles": "Cc1c(-c2ccc(=O)n(Cc3cccc(C(F)(F)F)c3)n2)c2cc(Cl)ccc2n1CC(=O)O", "note": "[Example 212, 2-(5-chloro-2-methyl-3-(6-oxo-1-(3-(trifluoromethyl)benzyl)-1,6-dihydropyridazin-3-yl)-1H-indol-1-yl)acetic acid]", "IC50": 33}
{"smiles": "Cc1c(-c2ccc(=O)n(Cc3ccccc3)c2)c2cc(F)ccc2n1CC(=O)NS(=O)(=O)c1ccccc1", "note": "[Example 312, 2-(3-(1-benzyl-6-oxo-1,6-dihydropyridin-3-yl)-5-fluoro-2-methyl-1H-indol-1-yl)-N-(phenylsulfonyl)acetamide]", "IC50": "> 1000"}
{"smiles": "Cc1c(-c2ccc(=O)n(CC(C)C)n2)c2cc(F)ccc2n1CC(=O)O", "note": "[Example 333, 2-(5-fluoro-3-(1-isobutyl-6-oxo-1,6-dihydropyridazin-3-yl)-2-methyl-1H-indol-1-yl)acetic acid]", "IC50": 111}
{"smiles": "Cc1ccccc1S(=O)(=O)NC(=O)Cn1c(C)c(-c2ccc(=O)n(Cc3ccccc3)c2)c2cc(F)ccc21", "note": "[Example 314, 2-(3-(1-Benzyl-6-oxo-1,6-dihydropyridin-3-yl)-5-fluoro-2-methyl-1H-indol-1-yl)-N-(o-tolyl-sulfonyl)acetamide]", "IC50": "> 1000"}
{"smiles": "Cc1c(Cc2ccc(=O)n(Cc3cccnc3)n2)c2cc(F)ccc2n1CC(=O)O", "note": "[Example 195, 2-(5-fluoro-2-methyl-3-((6-oxo-1-(pyridin-3-ylmethyl)-1,6-dihydropyridazin-3-yl)methyl)-1H-indol-1-yl)acetic acid]", "IC50": 12}
{"smiles": "Cc1c(-c2nn(Cc3ccc(Cl)cc3)c(=O)c3ccccc23)c2cc(Cl)ccc2n1CC(=O)O", "note": "[Example 1, 2-(5-Chloro-3-(3-(4-chlorobenzyl)-4-oxo-3,4-dihydrophthalazin-1-yl)-2-methyl-1H-indol-1-yl)acetic acid]", "IC50": 15}
{"smiles": "Cc1c(-c2nn(Cc3ccc(C(F)(F)F)cc3)c(=O)c3ccccc23)c2cc(Cl)ccc2n1CC(=O)O", "note": "[Example 198, 2-(5-Chloro-2-methyl-3-(4-oxo-3-(4-(trifluoromethyl)benzyl)-3,4-dihydrophthalazin-1-yl)-1H-indol-1-yl)acetic acid]", "IC50": 46}
{"smiles": "CCn1nc(-c2c(C)n(CC(=O)O)c3ccc(F)cc23)c2ccccc2c1=O", "note": "[Example 121, 2-(3-(3-ethyl-4-oxo-3,4-dihydrophthalazin-1-yl)-5-fluoro-2-methyl-1H-indol-1-yl)acetic acid]", "IC50": 55}
{"smiles": "CC(C)=CCn1nc(-c2c(C)n(CC(=O)O)c3ccc(F)cc23)c2ccccc2c1=O", "note": "[Example 130, 2-(5-fluoro-2-methyl-3-(3-(3-methylbut-2-enyl)-4-oxo-3,4-dihydro-phthalazin-1-yl)-1H-indol-1-yl)acetic acid]", "IC50": "> 1000"}
{"smiles": "Cc1cc(Cn2nc(-c3c(C)n(CC(=O)O)c4ccc(Cl)cc34)ccc2=O)c2ccccc2n1", "note": "[Example 145, 2-(5-chloro-2-methyl-3-(1-((2-methylquinolin-4-yl)methyl)-6-oxo-1,6-dihydropyridazin-3-yl)-1H-indol-1-yl)acetic acid]", "IC50": 144}
{"smiles": "Cc1c(-c2nn(Cc3cc(F)ccc3F)c(=O)c3ccccc23)c2cc(F)ccc2n1CC(=O)O", "note": "[Example 62, 2-(3-(3-(2,5-difluorobenzyl)-4-oxo-3,4-dihydrophthalazin-1-yl)-5-fluoro-2-methyl-1H-indol-1-yl)acetic acid]", "IC50": 9}
{"smiles": "Cc1c(-c2ccc(=O)n(Cc3ccc(F)cc3F)n2)c2cc(F)ccc2n1CC(=O)O", "note": "[Example 71, 2-(3-(1-(2,4-difluorobenzyl)-6-oxo-1,6-dihydropyridazin-3-yl)-5-fluoro-2-methyl-1H-indol-1-yl)acetic acid]", "IC50": 17}
{"smiles": "Cc1c(-c2ccc(=O)n(CCC(F)(F)F)n2)c2cc(F)ccc2n1CC(=O)O", "note": "[Example 164, 2-(5-fluoro-2-methyl-3-(6-oxo-1-(3,3,3-trifluoropropyl)-1,6-dihydro-pyridazin-3-yl)-1H-indol-1-yl)acetic acid]", "IC50": 409}
{"smiles": "Cc1c(Cc2ccc(=O)n(Cc3ccccc3)n2)c2ccccc2n1CC(=O)O", "note": "[Example 77, 2-(3-((1-Benzyl-6-oxo-1,6-dihydropyridazin-3-yl)methyl)-2-methyl-1H-indol-1-yl)acetic acid]", "IC50": 32}
{"smiles": "Cc1c(Cc2ccc(=O)n(Cc3c(F)cccc3F)c2)c2cc(F)ccc2n1CC(=O)O", "note": "[Example 38, 2-(3-((1-(2,6-Difluorobenzyl)-6-oxo-1,6-dihydropyridin-3-yl)methyl)-5-fluoro-2-methyl-1H-indol-1-yl)acetic acid]", "IC50": 7}
{"smiles": "Cc1c(-c2nn(CCOc3ccccc3)c(=O)c3ccccc23)c2cc(Cl)ccc2n1CC(=O)O", "note": "[Example 221, 2-(5-chloro-2-methyl-3-(4-oxo-3-(2-phenoxyethyl)-3,4-dihydrophthalazin-1-yl)-1H-indol-1-yl)acetic acid]", "IC50": 6}
{"smiles": "Cc1c(-c2nn(Cc3ccc(OC(F)(F)F)cc3)c(=O)c3ccccc23)c2cc(Cl)ccc2n1CC(=O)O", "note": "[Example 102, 2-(5-chloro-2-methyl-3-(4-oxo-3-(4-(trifluoromethoxy)benzyl)-3,4-dihydrophthalazin-1-yl)-1H-indol-1-yl)acetic acid]", "IC50": 27}
{"smiles": "Cc1c(-c2nn(Cc3nnc[nH]3)c(=O)c3ccccc23)c2cc(Cl)ccc2n1CC(=O)O", "note": "[Example 259a, 2-(3-(3-((4H-1,2,4-triazol-3-yl)methyl)-4-oxo-3,4-dihydrophthalazin-1-yl)-5-chloro-2-methyl-1H-indol-1-yl)acetic acid]", "IC50": 61}
{"smiles": "Cc1c(-c2nn(CCC(F)(F)F)c(=O)c3ccccc23)c2cc(F)ccc2n1CC(=O)O", "note": "[Example 127, 2-(5-fluoro-2-methyl-3-(4-oxo-3-(3,3,3-trifluoropropyl)-3,4-dihydro-phthalazin-1-yl)-1H-indol-1-yl)acetic acid]", "IC50": 4}
{"smiles": "Cc1c(Cc2cn(Cc3ccccc3)c(=O)c3ccccc23)c2ccccc2n1CC(=O)O", "note": "[Example 86, 2-(3-((2-benzyl-1-oxo-1,2-dihydroisoquinolin-4-yl)methyl)-2-methyl-1H-indol-1-yl)acetic acid]", "IC50": 197}
{"smiles": "Cc1c(-c2ccc(=O)n(Cc3cc(F)c(F)cc3F)c2)c2ccccc2n1CC(=O)O", "note": "[Example 286, 2-(2-methyl-3-(6-oxo-1-(2,4,5-trifluorobenzyl)-1,6-dihydropyridin-3-yl)-1H-indol-1-yl)acetic acid]", "IC50": 11}
